According to ChEMBL document CHEMBL1146681, “Design and synthesis of 3,7-diarylimidazopyridines as inhibitors of the VEGF-receptor KDR” (Bioorg Med Chem Lett, 2004):

Key:
[1] = molecular target: T1, Vascular endothelial growth factor receptor 2 (Homo sapiens, UniProt P35968); assay: Inhibition of VEGF stimulated phosphorylation of KDR on tyrosine residues in human kidney cells expressing vascular endothelial growth factor receptor 2; assay type: cell-based
[2] = molecular target: T1, Vascular endothelial growth factor receptor 2; assay: Intrinsic potency against VEGF stimulated KDR phosphorylation; assay type: functional
[3] = molecular target: T1, Vascular endothelial growth factor receptor 2; assay: Inhibition of phosphorylation of poly-Glu/Tyr (4:1) peptide substrate by VEGF-receptor 2 (KDR) kinase
[4] = molecular target: VEGF-receptor 2 and PDGF-receptor beta (KDR and PDGFR beta) (Homo sapiens) (UniProt P09619+P35968); assay: Selectivity for VEGFR2 over platelet-derived growth factor receptor beta
[5] = molecular target: VEGF-receptor 2 and Fibroblast growth factor receptor 1 (Homo sapiens) (UniProt P35968+P11362); assay: Selectivity for VEGF-receptor 2 over fibroblast growth factor receptor 1; assay type: protein assay
[6] = molecular target: Vascular endothelial growth factor receptor 1 and 2 (Flt-1 and KDR) (Homo sapiens) (UniProt P17948+P35968); assay: Selectivity for VEGF-receptor 2 over fms-like tyrosine kinase 1, VEGF-receptor 1; assay type: protein assay
[7] = molecular target: VEGF-receptor 2 and tyrosine-protein kinase SRC (Homo sapiens) (UniProt P12931+P35968); assay: Selectivity for VEGF-receptor 2 over c-Src tyrosine kinase; assay type: protein assay
[8] = molecular target: Vascular endothelial growth factor receptor 2 and 3 (KDR and Flt-4) (Homo sapiens) (UniProt P35916+P35968); assay: Selectivity of for VEGF-receptor 2 over fms-like tyrosine kinase-4, VEGF-receptor 3; assay type: protein assay
[9] = molecular target: Fibroblast growth factor receptor 4 (Homo sapiens) (UniProt P22455); assay: Selectivity for fibroblast growth factor receptor 4

T1 sequence (P35968 whole entry): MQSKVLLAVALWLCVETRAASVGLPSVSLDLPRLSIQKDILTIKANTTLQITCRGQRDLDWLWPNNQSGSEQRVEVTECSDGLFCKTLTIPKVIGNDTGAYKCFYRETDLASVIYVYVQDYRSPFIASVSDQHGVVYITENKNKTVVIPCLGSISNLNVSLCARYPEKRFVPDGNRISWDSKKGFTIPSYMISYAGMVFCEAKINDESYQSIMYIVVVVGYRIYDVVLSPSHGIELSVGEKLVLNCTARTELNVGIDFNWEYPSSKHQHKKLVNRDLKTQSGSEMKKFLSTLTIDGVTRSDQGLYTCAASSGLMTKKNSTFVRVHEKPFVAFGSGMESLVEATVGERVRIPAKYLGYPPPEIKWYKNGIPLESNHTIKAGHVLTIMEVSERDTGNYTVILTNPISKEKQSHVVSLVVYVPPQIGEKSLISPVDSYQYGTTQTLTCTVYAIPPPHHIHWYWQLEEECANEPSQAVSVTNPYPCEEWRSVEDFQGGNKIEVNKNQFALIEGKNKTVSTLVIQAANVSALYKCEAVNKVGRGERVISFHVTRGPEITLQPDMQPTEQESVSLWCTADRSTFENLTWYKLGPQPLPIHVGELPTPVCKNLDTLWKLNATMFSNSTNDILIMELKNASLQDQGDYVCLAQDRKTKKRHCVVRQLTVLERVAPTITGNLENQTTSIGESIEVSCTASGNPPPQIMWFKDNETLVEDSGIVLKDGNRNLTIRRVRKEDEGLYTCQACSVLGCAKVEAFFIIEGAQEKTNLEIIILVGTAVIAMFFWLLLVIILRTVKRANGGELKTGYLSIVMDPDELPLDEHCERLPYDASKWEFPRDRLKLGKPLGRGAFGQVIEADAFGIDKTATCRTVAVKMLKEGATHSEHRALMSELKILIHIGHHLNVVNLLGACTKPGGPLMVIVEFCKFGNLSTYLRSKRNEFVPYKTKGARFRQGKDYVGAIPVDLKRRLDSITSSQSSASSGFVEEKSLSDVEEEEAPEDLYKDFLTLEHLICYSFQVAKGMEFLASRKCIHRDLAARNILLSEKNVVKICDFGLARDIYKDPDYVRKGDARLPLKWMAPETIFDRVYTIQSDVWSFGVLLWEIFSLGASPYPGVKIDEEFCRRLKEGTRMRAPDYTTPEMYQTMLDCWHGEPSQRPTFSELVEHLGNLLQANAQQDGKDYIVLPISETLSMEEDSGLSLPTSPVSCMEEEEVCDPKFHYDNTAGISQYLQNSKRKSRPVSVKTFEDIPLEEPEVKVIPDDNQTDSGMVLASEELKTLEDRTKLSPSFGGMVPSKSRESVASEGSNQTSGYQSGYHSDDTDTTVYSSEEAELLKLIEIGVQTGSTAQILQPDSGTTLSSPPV
Sequence of VEGF-receptor 2 and Fibroblast growth factor receptor 1 (Homo sapiens) (P11362 whole entry, looked up): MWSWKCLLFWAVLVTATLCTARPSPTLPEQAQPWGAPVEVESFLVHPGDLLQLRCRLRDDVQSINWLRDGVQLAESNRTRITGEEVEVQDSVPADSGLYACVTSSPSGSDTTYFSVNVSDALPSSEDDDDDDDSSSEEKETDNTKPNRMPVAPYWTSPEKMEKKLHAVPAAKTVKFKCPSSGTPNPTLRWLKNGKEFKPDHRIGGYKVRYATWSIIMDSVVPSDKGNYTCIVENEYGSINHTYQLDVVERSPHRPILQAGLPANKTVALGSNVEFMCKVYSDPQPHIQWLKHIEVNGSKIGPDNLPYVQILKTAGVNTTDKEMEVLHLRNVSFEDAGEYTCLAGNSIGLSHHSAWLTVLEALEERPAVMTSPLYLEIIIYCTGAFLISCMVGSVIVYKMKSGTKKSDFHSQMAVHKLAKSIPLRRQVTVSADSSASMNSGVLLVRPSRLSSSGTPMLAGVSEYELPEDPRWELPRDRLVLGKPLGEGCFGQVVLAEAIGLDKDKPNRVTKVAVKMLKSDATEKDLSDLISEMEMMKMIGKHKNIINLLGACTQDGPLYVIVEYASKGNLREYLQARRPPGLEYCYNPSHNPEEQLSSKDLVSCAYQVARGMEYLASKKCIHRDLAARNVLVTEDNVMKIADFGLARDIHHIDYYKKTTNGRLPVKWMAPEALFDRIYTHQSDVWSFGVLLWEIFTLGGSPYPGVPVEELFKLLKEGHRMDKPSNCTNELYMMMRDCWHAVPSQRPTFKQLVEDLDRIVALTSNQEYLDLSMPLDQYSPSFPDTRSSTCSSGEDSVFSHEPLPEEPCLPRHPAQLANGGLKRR
Sequence of VEGF-receptor 2 and Fibroblast growth factor receptor 1 (Homo sapiens) (P35968 whole entry, looked up): as the sequence (P35968 whole entry) above
Sequence of Vascular endothelial growth factor receptor 1 and 2 (Flt-1 and KDR) (Homo sapiens) (P17948 whole entry, looked up): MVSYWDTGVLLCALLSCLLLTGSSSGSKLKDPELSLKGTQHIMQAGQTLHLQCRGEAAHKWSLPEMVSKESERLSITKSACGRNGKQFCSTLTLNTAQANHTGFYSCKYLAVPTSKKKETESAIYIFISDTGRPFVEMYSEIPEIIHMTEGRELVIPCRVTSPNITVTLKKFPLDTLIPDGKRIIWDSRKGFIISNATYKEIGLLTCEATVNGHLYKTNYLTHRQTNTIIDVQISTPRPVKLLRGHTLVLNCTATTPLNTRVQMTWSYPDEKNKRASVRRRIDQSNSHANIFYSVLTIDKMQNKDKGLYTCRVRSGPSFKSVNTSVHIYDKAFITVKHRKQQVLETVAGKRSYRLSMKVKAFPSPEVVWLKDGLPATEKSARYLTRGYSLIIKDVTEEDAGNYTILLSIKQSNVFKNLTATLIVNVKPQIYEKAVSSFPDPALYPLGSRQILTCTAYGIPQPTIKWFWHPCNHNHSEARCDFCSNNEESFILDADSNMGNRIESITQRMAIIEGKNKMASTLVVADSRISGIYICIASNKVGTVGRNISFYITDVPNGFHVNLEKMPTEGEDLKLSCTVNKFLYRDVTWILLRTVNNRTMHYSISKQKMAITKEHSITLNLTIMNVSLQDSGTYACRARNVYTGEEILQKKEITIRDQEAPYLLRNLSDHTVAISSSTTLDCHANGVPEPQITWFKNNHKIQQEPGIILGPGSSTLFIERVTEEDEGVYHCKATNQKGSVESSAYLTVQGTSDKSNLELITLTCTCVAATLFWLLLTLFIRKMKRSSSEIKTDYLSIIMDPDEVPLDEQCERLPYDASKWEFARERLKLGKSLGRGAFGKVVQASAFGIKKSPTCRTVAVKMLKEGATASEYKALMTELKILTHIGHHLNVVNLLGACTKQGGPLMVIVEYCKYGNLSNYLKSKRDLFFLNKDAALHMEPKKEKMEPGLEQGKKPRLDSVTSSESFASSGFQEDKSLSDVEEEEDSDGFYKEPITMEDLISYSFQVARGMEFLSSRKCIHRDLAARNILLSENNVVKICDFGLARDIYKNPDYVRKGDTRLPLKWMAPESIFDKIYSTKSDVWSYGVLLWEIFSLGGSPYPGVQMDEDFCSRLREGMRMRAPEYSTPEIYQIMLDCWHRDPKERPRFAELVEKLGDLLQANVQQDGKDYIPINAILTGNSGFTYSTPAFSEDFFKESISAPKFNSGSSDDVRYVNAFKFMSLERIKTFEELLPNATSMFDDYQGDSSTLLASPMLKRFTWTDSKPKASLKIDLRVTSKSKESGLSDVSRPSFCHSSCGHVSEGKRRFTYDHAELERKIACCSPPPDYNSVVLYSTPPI
Sequence of Vascular endothelial growth factor receptor 1 and 2 (Flt-1 and KDR) (Homo sapiens) (P35968 whole entry, looked up): as the sequence (P35968 whole entry) above
Sequence of Vascular endothelial growth factor receptor 2 and 3 (KDR and Flt-4) (Homo sapiens) (P35916 whole entry, looked up): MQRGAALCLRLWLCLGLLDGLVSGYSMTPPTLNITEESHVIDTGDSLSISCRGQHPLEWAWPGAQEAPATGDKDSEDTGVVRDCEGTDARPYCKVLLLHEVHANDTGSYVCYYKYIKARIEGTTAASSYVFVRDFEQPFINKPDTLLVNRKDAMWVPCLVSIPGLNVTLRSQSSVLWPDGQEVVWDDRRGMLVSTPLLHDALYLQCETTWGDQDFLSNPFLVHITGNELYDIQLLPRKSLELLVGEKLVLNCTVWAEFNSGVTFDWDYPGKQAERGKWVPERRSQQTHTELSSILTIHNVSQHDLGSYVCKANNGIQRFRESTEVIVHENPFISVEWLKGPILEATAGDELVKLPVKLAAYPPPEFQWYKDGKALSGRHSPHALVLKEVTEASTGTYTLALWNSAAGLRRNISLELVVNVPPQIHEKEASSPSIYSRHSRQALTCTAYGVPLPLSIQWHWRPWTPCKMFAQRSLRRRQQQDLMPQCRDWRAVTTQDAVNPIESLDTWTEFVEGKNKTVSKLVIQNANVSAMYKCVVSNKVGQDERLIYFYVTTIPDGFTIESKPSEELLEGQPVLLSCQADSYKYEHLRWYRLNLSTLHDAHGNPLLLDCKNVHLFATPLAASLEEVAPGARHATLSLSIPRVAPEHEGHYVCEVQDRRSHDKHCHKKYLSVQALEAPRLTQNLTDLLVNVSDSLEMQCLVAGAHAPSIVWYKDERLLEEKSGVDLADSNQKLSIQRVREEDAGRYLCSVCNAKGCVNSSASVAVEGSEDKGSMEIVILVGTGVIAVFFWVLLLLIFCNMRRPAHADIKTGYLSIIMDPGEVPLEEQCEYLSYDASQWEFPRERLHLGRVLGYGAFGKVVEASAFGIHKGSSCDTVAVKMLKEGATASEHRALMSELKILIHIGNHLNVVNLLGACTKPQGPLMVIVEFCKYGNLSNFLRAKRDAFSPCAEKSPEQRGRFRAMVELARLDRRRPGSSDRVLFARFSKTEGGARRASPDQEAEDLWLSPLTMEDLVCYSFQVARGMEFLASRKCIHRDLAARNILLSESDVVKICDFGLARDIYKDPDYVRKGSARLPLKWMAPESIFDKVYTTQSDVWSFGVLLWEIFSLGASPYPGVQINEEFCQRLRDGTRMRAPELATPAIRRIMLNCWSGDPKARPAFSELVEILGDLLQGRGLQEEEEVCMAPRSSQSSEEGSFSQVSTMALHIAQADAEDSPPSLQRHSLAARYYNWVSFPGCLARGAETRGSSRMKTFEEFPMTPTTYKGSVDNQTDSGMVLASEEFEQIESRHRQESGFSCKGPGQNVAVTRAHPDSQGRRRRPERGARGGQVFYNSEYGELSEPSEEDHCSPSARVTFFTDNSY
Sequence of Vascular endothelial growth factor receptor 2 and 3 (KDR and Flt-4) (Homo sapiens) (P35968 whole entry, looked up): as the sequence (P35968 whole entry) above

Row | Compound | IC50 [1] [nM] | IC50 [2] [nM] | other results
1 | COCCN(C)CCCn1ccc(-c2ccn3c(-c4ccccc4)cnc3c2)cc1=O | 96 |  | 
2 | CNC(=O)N1CCN(Cc2ccc(-c3ccn4c(-c5ccccc5)cnc4c3)cc2)CC1 | 52 | 410 | 
3 | c1ccc(-c2ccn3c(-c4cncs4)cnc3c2)cc1 | 99 |  | 
4 | CC(=O)N1CCN(Cc2ccc(-c3ccn4c(-c5ccccc5)cnc4c3)cc2)CC1 | 77 | 300 | 
5 | COc1ccc(-c2cnc3cc(-c4ccccc4)ccn23)cn1 |  |  | IC50 [3]: 2840 nM
6 | c1ccc(-c2ccn3c(-c4ccncc4)cnc3c2)cc1 | 145 |  | 
7 | O=c1cc(-c2ccn3c(-c4ccccc4)cnc3c2)ccn1CCCO | 120 |  | 
8 | O=c1cc(-c2ccn3c(-c4ccccc4)cnc3c2)ccn1CCCN1CCCCC1 | 28 | 51 | Selectivity [4]: 1; Selectivity [5]: 60; Selectivity [6]: 3.1; Selectivity [7]: 68; Selectivity [8]: 2.8
9 | CS(=O)(=O)N1CCN(Cc2ccc(-c3ccn4c(-c5ccccc5)cnc4c3)cc2)CC1 | 13 | 110 | 
10 | c1ccc(-c2ccn3c(-c4ccccc4)cnc3c2)cc1 | 98 |  | 
11 | c1ccc(-c2ccn3c(-c4nccs4)cnc3c2)cc1 | 42 |  | Selectivity [9]: 23; Selectivity [4]: 1.4; Selectivity [5]: 47; Selectivity [6]: 7; Selectivity [7]: 165; Selectivity [8]: 1.7

Now from value to compound, other results behind:

Row | IC50 [1] [nM] | IC50 [2] [nM] | Compound | other results
12 | 69 |  | NC(=O)N1CCN(Cc2ccc(-c3ccn4c(-c5ccccc5)cnc4c3)cc2)CC1 | 
13 | 67 | 280 | CN(C)CC1CCCN(CCCn2ccc(-c3ccn4c(-c5ccccc5)cnc4c3)cc2=O)C1 (configuration not stated) | 
14 | 930 |  | c1ccc(-c2ccn3c(-c4cccnc4)cnc3c2)cc1 | 
15 | 242 |  | COc1cccc(-c2cnc3cc(-c4ccccc4)ccn23)n1 | 
16 | 50 |  | c1ccc(-c2ccn3c(-c4cnsc4)cnc3c2)cc1 | 
